Values joined by “and” are separate entries in the source; they are usually repeats but may differ in a detail not shown here. Equal entries are not always repeated. Structures can show the parent of a compound that is named as a salt.

In assay [1] the test system is Staphylococcus aureus MW2 (mecA+). Briefly: IC50 (growth, competition assay). The note with it: cefoxitin: subinhibitory. Summed up: (§1)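 Signals from DsRed (540/590) and GFP (485/520) were scaled on every plate between single-strain control medians, with No Treatment then set to 0.5. The cells were a 1:1 mix of pre-induced fluorescent S. aureus MW2 strains with and without the resistance gene, grown unshaken for 20 h at 37 °C and 90% humidity in LB in 1536-well plates under a subinhibitory drug dose set each day. Each strain's IC50 was defined as the dose halving the No Treatment signal, or the maximal signal.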

Assay [2] has as its system Staphylococcus aureus MW2 delta-mecA (mecA-). The experiment in a line: IC50 (growth, competition assay). The note with it: cefoxitin: subinhibitory. In a few lines:
as §1

A word on the IC50: it is the concentration needed to halve the response being measured. As for `C[C@H]1c2cccc(O)c2C(=O)C2=C(O)[C@]3(O)C(=O)C(C(N)=O)=C(O)[C@@H](N(C)C)[C@@H]3[C@@H](O)[C@@H]21` [Doxycycline HCl], the IC50 in assay [1] (fluorescent label: DsRed), in assay [1] (fluorescent label: GFP), in assay [2] (fluorescent label: DsRed) and in assay [2] (fluorescent label: GFP) was below 9.85 µM throughout.
Turning to `CCOc1nc2cccc(C(=O)OCc3oc(=O)oc3C)c2n1Cc1ccc(-c2ccccc2-c2noc(=O)[nH]2)cc1` [Azilsartan Medoxomil (TAK-491)], the half-maximal inhibitory concentration (IC50) in assay [1] (fluorescent label: DsRed) was determined as 48.4 µM; in assay [1] (fluorescent label: GFP), 67 µM; in assay [2] (fluorescent label: DsRed), 11.9 µM; in assay [2] (fluorescent label: GFP), 10.2 µM.
For the compound `C=C1c2cccc(O)c2C(=O)C2=C(O)[C@]3(O)C(=O)C(C(N)=O)=C(O)[C@@H](N(C)C)[C@@H]3[C@@H](O)[C@H]12` [RONDOMYCIN], the 50% inhibitory concentration (IC50) in assay [1] (fluorescent label: DsRed), in assay [1] (fluorescent label: GFP), in assay [2] (fluorescent label: DsRed) and in assay [2] (fluorescent label: GFP) was below 9.85 µM each time.
On to `Clc1ccc(C(Cn2ccnc2)OCc2ccsc2Cl)c(Cl)c1` (configuration not stated) [VAGISTAT], for which the IC50 in assay [1] (fluorescent label: DsRed) came out at 29.6 µM; in assay [1] (fluorescent label: GFP) it was 30.6 µM; in assay [2] (fluorescent label: DsRed), 16.9 µM; in assay [2] (fluorescent label: GFP), 15 µM.
Regarding `N[C@@H]1CN(c2c(F)cc3c(=O)c(C(=O)O)cn([C@@H]4C[C@@H]4F)c3c2Cl)CC12CC2` [Sitafloxacin hydrate], the IC50 in assay [1] (fluorescent label: DsRed), in assay [1] (fluorescent label: GFP), in assay [2] (fluorescent label: DsRed) and in assay [2] (fluorescent label: GFP) was below 0.498 µM each time.
Consider `O=C1C=C2C(=CCOC2O)O1` (configuration not stated) [PATULIN], for which the IC50 in assay [1] (fluorescent label: DsRed) is 18.9 µM; in assay [1] (fluorescent label: GFP) it was 26.9 µM; in assay [2] (fluorescent label: DsRed), below 9.85 µM; in assay [2] (fluorescent label: GFP), below 9.85 µM.
With `CCn1cc(C(=O)O)c(=O)c2ccc(C)nc21` [Nalidixic acid sodium], the concentration for half-maximal inhibition (IC50) worked out at 34 µM in assay [1] (fluorescent label: DsRed), 29.8 µM in assay [1] (fluorescent label: GFP), 17.2 µM in assay [2] (fluorescent label: DsRed) and 16.2 µM in assay [2] (fluorescent label: GFP).
For `CC[C@H]1OC(=O)[C@H](C)[C@@H](O[C@H]2C[C@@](C)(OC)[C@@H](O)[C@H](C)O2)[C@H](C)[C@@H](O[C@@H]2O[C@H](C)C[C@H](N(C)C)[C@H]2O)[C@](C)(O)C[C@@H](C)[C@@H]2N[C@@H](COCCOC)O[C@H]([C@H]2C)[C@]1(C)O` [DYNABAC] the same measures were 21.4 µM, 21.3 µM, below 9.85 µM and below 9.85 µM.
For `COC(=O)C1=C(C)NC(C)=C(C(=O)OCC(C)C)C1c1ccccc1[N+](=O)[O-]` (configuration not stated) [SULAR] the same measures were above 150 µM, above 150 µM, 78 µM and 51.8 µM.
For `CCn1cnc2c(Nc3cccc(Cl)c3)nc(N[C@@H]3CCCC[C@@H]3N)nc21` the same measures were 65.8 µM, 78.3 µM, 15.2 µM and 17 µM.
Regarding `O=C(Nc1cccc(C(F)(F)F)c1)Nc1cc(S(=O)(=O)NC2CC2)ccc1-c1ccsc1` [AGI-6780], the concentration for half-maximal inhibition (IC50) worked out at 33.7 µM in assay [1] (fluorescent label: DsRed), 36.9 µM in assay [1] (fluorescent label: GFP), 18.5 µM in assay [2] (fluorescent label: DsRed) and 11.6 µM in assay [2] (fluorescent label: GFP).
The like results for `Oc1c(Br)cc(Br)c2cccnc12` [FENILOR] were, in that order, below 9.85 µM, 13.6 µM, below 9.85 µM and below 9.85 µM.
For `COc1cc(-c2ccc(/N=N/c3ccc4c(S(=O)(=O)O)cc(S(=O)(=O)O)c(N)c4c3O)c(OC)c2)ccc1/N=N/c1ccc2c(S(=O)(=O)O)cc(S(=O)(=O)O)c(N)c2c1O` [CHICAGO SKY BLUE] the same measures were 24.8 µM, 16.5 µM, below 9.85 µM and below 9.85 µM.
For `COC(=O)C1=C(C)NC(C)=C(C(=O)OCC(C)C)C1c1ccccc1[N+](=O)[O-]` (configuration not stated) [Nisoldipine] the same measures were 63.1 µM, 99.2 µM, 12.7 µM and 7.55 µM.
For `CNc1nc(-c2ccc3c(N)n[nH]c3c2)cc(N2C[C@@H](C(=O)NC3CCCCC3)CC[C@H]2C)n1`, the IC50 is 111 µM in assay [1] (fluorescent label: DsRed), 111 µM in assay [1] (fluorescent label: GFP), 51.4 µM in assay [2] (fluorescent label: DsRed) and 26.4 µM in assay [2] (fluorescent label: GFP).
`O=c1cc(O)cc(/C=C/c2ccc(O)c(O)c2)o1` [Hispidin]: the IC50 in assay [1] (fluorescent label: DsRed) was determined as 58.9 µM; in assay [1] (fluorescent label: GFP), 54.8 µM; in assay [2] (fluorescent label: DsRed), 50.9 µM; in assay [2] (fluorescent label: GFP), 59.1 µM.
The like results for `CN[C@@H]1[C@@H](O)[C@@H](O[C@@H]2[C@@H](O)[C@H](O[C@H]3O[C@H]([C@@H](C)O)[C@@H](O)[C@H](O)[C@H]3N)[C@@H](N)C[C@H]2N)OC[C@]1(C)O` [GENETICIN] were, in that order, below 9.85 µM, 12.5 µM, below 9.85 µM and 12.4 µM.
For the compound `CC1(C)CCC2=C(O1)c1ccccc1C(=O)C2=O` [beta-Lapachone], the IC50 in assay [1] (fluorescent label: DsRed) was 12.9 µM; in assay [1] (fluorescent label: GFP), 28.3 µM; in assay [2] (fluorescent label: DsRed) it was below 9.85 µM; in assay [2] (fluorescent label: GFP), below 9.85 µM.
In the case of `C[C@@H](O[C@H]1OCCN(Cc2nn(P(=O)(O)O)c(=O)[nH]2)[C@H]1c1ccc(F)cc1)c1cc(C(F)(F)F)cc(C(F)(F)F)c1` [Fosaprepitant dimeglumine], the IC50 is 53.4 µM in assay [1] (fluorescent label: DsRed), 49.3 µM in assay [1] (fluorescent label: GFP), 17.2 µM in assay [2] (fluorescent label: DsRed) and 31.6 µM in assay [2] (fluorescent label: GFP).
For the compound `CN(C)[C@@H]1C(O)=C(C(N)=O)C(=O)[C@@]2(O)C(O)=C3C(=O)c4c(O)ccc(Cl)c4[C@@](C)(O)[C@H]3C[C@@H]12` [AUREOMYCIN], the IC50 in assay [1] (fluorescent label: DsRed), in assay [1] (fluorescent label: GFP), in assay [2] (fluorescent label: DsRed) and in assay [2] (fluorescent label: GFP) was below 9.85 µM each time.
`CC(=O)OC[C@H]1O[C@@H]([S-])[C@H](OC(C)=O)[C@@H](OC(C)=O)[C@@H]1OC(C)=O.CCP(CC)CC.[Au+]` [Auranofin]: the IC50 in assay [1] (fluorescent label: DsRed), in assay [1] (fluorescent label: GFP), in assay [2] (fluorescent label: DsRed) and in assay [2] (fluorescent label: GFP) was below 9.85 µM throughout.
`C=C1C(=O)[C@]23[C@H](O)[C@H]1CC[C@H]2[C@@]12CO[C@]3(O)[C@@H](O)[C@@H]1C(C)(C)CC[C@@H]2O` [Oridonin (Isodonol)]: the IC50 in assay [1] (fluorescent label: DsRed) was 29.5 µM; in assay [1] (fluorescent label: GFP), 51.5 µM; in assay [2] (fluorescent label: DsRed) it was 13.7 µM; in assay [2] (fluorescent label: GFP), below 9.85 µM.
As to `O=C1OCCN1/N=C/c1ccc([N+](=O)[O-])o1` [FUROXONE], the IC50 in assay [1] (fluorescent label: DsRed), in assay [1] (fluorescent label: GFP), in assay [2] (fluorescent label: DsRed) and in assay [2] (fluorescent label: GFP) was below 9.85 µM each time.
For `C[C@H]1[C@H](C)CC[C@]2(C(=O)O)CC[C@]3(C)C(=CC[C@@H]4[C@@]5(C)C[C@@H](O)[C@H](O)[C@@](C)(CO)[C@@H]5CC[C@]43C)[C@H]12` [Asiatic acid], the IC50 in assay [1] (fluorescent label: DsRed) is 54.9 µM and 27.7 µM; in assay [1] (fluorescent label: GFP) it was 29.7 µM and 27.7 µM; in assay [2] (fluorescent label: DsRed), 17 µM and 28 µM; in assay [2] (fluorescent label: GFP), 17.5 µM and 23.5 µM.
`COc1c(N2CCNC(C)C2)c(F)cc2c(=O)c(C(=O)O)cn(C3CC3)c12` (configuration not stated) [TEQUIN]: the IC50 in assay [1] (fluorescent label: DsRed), in assay [1] (fluorescent label: GFP), in assay [2] (fluorescent label: DsRed) and in assay [2] (fluorescent label: GFP) was below 9.85 µM throughout.
`CC1COc2c(N3CCN(C)CC3)c(F)cc3c(=O)c(C(=O)O)cn1c23` (configuration not stated) [Ofloxacin]: the IC50 in assay [1] (fluorescent label: DsRed), in assay [1] (fluorescent label: GFP), in assay [2] (fluorescent label: DsRed) and in assay [2] (fluorescent label: GFP) was below 9.85 µM each time.
In the case of `O=c1[nH]c(=O)n([C@H]2C[C@H](O)[C@@H](CO)O2)cc1C(F)(F)F` [VIROPTIC], the IC50 in assay [1] (fluorescent label: DsRed) was 59 µM; in assay [1] (fluorescent label: GFP), 108 µM; in assay [2] (fluorescent label: DsRed), below 9.85 µM; in assay [2] (fluorescent label: GFP), below 9.85 µM.
Turning to `CN1CCN(c2c(F)cc3c(=O)c(C(=O)O)cn4c3c2SCC4)CC1` [TEBRAXIN], the IC50 in assay [1] (fluorescent label: DsRed), in assay [1] (fluorescent label: GFP), in assay [2] (fluorescent label: DsRed) and in assay [2] (fluorescent label: GFP) was below 9.85 µM each time.

These data come from the supplement of paper PMC7695840.
